Measured values reported in paper PMC2834277 (Nature structural & molecular biology, 2010).

What was measured:
DmAgo2ΔQ [1] = target: T1, DmAgo2ΔQ (Drosophila melanogaster, UniProt Q9VUQ5); assay: filter binding, competition with […]-bantam miRNA; details: PBS, 5 mM MgCl2, room temperature; 5'-end miRNA site; high concentrations
T1 sequence (Q9VUQ5 400-1214 limits assumed): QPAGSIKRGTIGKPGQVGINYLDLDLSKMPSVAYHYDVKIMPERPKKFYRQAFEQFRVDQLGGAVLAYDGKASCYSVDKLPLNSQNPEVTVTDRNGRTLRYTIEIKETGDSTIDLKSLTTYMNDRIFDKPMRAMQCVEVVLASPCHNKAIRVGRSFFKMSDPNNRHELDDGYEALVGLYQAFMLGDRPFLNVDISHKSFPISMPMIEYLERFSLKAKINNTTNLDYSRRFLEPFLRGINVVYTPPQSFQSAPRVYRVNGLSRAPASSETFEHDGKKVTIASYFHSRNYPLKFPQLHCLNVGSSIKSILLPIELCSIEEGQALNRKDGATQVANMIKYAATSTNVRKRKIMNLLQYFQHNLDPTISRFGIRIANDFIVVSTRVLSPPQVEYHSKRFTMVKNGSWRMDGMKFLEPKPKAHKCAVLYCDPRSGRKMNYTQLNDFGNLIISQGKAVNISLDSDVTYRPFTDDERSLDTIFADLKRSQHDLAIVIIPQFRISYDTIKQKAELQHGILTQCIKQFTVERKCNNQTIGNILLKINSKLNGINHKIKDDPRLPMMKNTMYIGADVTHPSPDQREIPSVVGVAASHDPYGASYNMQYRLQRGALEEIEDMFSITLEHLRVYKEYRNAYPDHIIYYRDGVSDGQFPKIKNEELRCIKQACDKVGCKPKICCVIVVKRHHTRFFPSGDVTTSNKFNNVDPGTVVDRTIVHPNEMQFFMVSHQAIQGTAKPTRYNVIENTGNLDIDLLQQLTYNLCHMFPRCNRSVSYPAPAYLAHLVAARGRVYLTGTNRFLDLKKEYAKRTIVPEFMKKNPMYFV

PurR-C [2] = target: T2, PurR-C (Escherichia coli, UniProt P0ACP7); assay: Sepharose resin pull-down, competition with free nucleotide; format: binding; details: 500 uM nucleotide, PBS, 5 mM MgCl2, 4 C; data not shown
T2 sequence (P0ACP7 60-341 limits assumed): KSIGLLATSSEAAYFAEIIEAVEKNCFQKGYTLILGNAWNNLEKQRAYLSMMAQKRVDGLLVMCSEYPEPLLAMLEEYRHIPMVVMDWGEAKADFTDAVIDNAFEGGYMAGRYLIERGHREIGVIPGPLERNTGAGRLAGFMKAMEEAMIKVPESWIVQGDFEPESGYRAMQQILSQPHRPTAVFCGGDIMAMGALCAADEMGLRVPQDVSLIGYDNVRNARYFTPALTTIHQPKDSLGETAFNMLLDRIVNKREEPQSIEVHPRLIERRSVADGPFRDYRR

DmAgo2ΔQ [3] = target: T1, DmAgo2ΔQ; assay: resin pull-down, GTP-Sepharose; format: binding; details: ligand immobilised on Sepharose; competed by miRNA; PBS, MgCl2, 4 C
DmAgo2-MID [4] = target: T3, DmAgo2-MID (Drosophila melanogaster, UniProt Q9VUQ5); assay: m7GTP-Sepharose pull-down, competition with free nucleotide; format: binding; details: 500 uM GTP, PBS, 5 mM MgCl2, 4 C; competitive
T3 sequence (Q9VUQ5 740-884 limits assumed): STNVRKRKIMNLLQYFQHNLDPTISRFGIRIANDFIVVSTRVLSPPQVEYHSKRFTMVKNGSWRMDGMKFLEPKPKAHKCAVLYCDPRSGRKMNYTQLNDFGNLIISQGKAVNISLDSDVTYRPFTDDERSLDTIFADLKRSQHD

CeAlg1-MID = CeAlg1-MID (Caenorhabditis elegans, UniProt G5EGR6); assay: resin pull-down, m7GTP-Sepharose; format: binding; details: ligand immobilised on Sepharose; PBS, 5 mM MgCl2, 4 C
CeAlg1-MID, sequence (G5EGR6 540-686 limits assumed): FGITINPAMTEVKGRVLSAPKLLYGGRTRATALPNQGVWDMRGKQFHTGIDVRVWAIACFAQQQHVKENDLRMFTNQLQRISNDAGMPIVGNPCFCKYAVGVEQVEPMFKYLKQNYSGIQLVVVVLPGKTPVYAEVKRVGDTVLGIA

PurR-C [5] = target: T2, PurR-C; assay: resin pull-down, m7GTP-Sepharose; format: binding; details: ligand immobilised on Sepharose; PBS, 5 mM MgCl2, 4 C
DmAgo1-MID = DmAgo1-MID (Drosophila melanogaster, UniProt A1Z9J5); assay: resin pull-down, m7GTP-Sepharose; format: binding; details: ligand immobilised on Sepharose; PBS, 5 mM MgCl2, 4 C
DmAgo1-MID, sequence (A1Z9J5 538-665): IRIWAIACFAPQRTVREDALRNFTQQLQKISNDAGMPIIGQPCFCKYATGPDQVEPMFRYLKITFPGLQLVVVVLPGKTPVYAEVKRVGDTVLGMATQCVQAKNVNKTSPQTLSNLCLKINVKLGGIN

DmAgo2-MID [6] = target: T3, DmAgo2-MID; assay: resin pull-down, m7GTP-Sepharose; format: binding; details: ligand immobilised on Sepharose; PBS, 5 mM MgCl2, 4 C
CeRde1 MID domain = target: T4, CeRde1 MID domain (Caenorhabditis elegans, UniProt G5EEH0); assay: resin pull-down, m7GTP-Sepharose; format: binding; details: ligand immobilised on Sepharose; PBS, 5 mM MgCl2, 4 C
T4 sequence (G5EEH0 470-618 limits assumed): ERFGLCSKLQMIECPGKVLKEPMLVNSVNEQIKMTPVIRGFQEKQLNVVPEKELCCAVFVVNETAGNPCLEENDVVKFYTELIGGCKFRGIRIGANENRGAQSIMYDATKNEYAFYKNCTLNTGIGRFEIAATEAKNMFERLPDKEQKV

DmeIF4E = target: T5, DmeIF4E (Drosophila melanogaster, UniProt P48598); assay: resin pull-down, m7GTP-Sepharose; format: binding; details: ligand immobilised on Sepharose; PBS, 5 mM MgCl2, 4 C
T5 sequence (P48598 1-259): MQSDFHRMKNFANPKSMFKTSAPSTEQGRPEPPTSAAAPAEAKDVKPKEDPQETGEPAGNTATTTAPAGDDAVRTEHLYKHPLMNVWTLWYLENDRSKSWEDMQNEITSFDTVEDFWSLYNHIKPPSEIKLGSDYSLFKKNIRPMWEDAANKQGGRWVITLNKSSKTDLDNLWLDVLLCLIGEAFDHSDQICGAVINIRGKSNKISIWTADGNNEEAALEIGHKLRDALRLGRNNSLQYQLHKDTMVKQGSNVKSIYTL

`Nc1nc2c(ncn2[C@@H]2O[C@H](COP(=O)(O)O)[C@@H](O)[C@H]2O)c(=O)[nH]1` [GMP] was tested, and the “filter binding, competition with 32P-bantam miRNA” value (DmAgo2ΔQ [1]) was “allosteric behavior was not observed for DmAgo2ΔQ, though GMP could compete at high concentrations”.
With `C[n+]1cn([C@@H]2O[C@H](COP(=O)(O)OP(=O)(O)OP(=O)(O)OC[C@H]3O[C@@H](n4cnc5c(=O)[nH]c(N)nc54)[C@H](O)[C@@H]3O)[C@@H](O)[C@H]2O)c2nc(N)[nH]c(=O)c21` [m^7GpppG] the “Sepharose resin pull-down, competition with free nucleotide” value (PurR-C [2]) was “PurR binding to each resin was easily competed by both GTP and m^7GpppG”.
`Nc1nc2c(ncn2[C@@H]2O[C@H](COP(=O)(O)OP(=O)(O)OP(=O)(O)O)[C@@H](O)[C@H]2O)c(=O)[nH]1` [GTP] was tested, and the “Sepharose resin pull-down, competition with free nucleotide” value (PurR-C [2]) was “PurR binding to each resin was easily competed by both GTP and m^7GpppG”, the “resin pull-down, GTP-Sepharose” value (DmAgo2ΔQ [3]) was “DmAgo2ΔQ binds poorly to m^7GTP, and better to GTP- and GMP-Sepharose” and the “m7GTP-Sepharose pull-down, competition with free nucleotide” value (DmAgo2-MID [4]) was “DmAgo2-MID binding was also readily competed by GTP”.
With `C[n+]1cn([C@@H]2O[C@H](COP(=O)(O)OP(=O)(O)OP(=O)(O)O)[C@@H](O)[C@H]2O)c2nc(N)[nH]c(=O)c21` [m^7GTP] the “resin pull-down, m7GTP-Sepharose” value (CeAlg1-MID) was “miRNA-related Argonautes (DmAgo1, CeAlg1) consistently bound more effectively to m^7GTP-Sepharose”, the “resin pull-down, m7GTP-Sepharose” value (PurR-C [5]) was “as well as the ligand-binding domain of PurR, were able to bind to both resins” and the “resin pull-down, m7GTP-Sepharose” value (DmAgo1-MID) was “miRNA-related Argonautes (DmAgo1, CeAlg1) consistently bound more effectively to m^7GTP-Sepharose”. The “resin pull-down, m7GTP-Sepharose” value (DmAgo2-MID [6]) was “All of the MID domains [...] were able to bind to both resins”, the “resin pull-down, m7GTP-Sepharose” value (CeRde1 MID domain) was “All of the MID domains [...] were able to bind to both resins” and the “resin pull-down, m7GTP-Sepharose” value (DmeIF4E) was “the binding of DmeIF4E to m^7GTP-Sepharose was highly efficient”.
